Data published in patent publication US11833137B2, “Substituted chromenones, IRE1 inhibitors, and methods of using same” (The Wistar Institute, priority 2018, dated 2023).

Experiments:
[1] = tested on: XBP-1s expression, 5TGM1 cells; experiment: XBP-1s immunoblot in 5TGM1 multiple myeloma cells; type: cell-based, mouse
Procedure: 5TGM1 mouse multiple myeloma cells, primary mouse B cells, primary mouse Eμ-TCL1 CLL cells, and human CLL cell lines (MEC2 and WaC3) were cultured at 37° C. in a 5% CO2 incubator using RPMI 1640 media (Gibco) supplemented with 10% heat-inactivated FBS, 2 mM L-glutamine, 100 U/mL penicillin G sodium, 1 mM sodium pyruvate, 0.1 mM non-essential amino acids, 100 μg/mL streptomycin sulfate and 0.1 mM β-mercaptoethanol (β-ME).
Cells were lysed using RIPA buffer (10 mM Tris-HCl, pH 7.4, 150 mM NaCl, 1% NP-40, 0.5% sodium deoxycholate, 0.1% SDS, and 1 mM EDTA) supplemented with protease inhibitors (Roche). Protein concentrations were determined by BCA assays (Pierce).
Samples were boiled in SDS-PAGE sample buffer (62.5 mM Tris-HCl, pH 6.8, 2% SDS, 10% glycerol, 0.1% bromophenol blue) with β-ME and analyzed by SDS-PAGE. Proteins were transferred to nitrocellulose membranes, blocked in 5% nonfat milk (wt/vol in PBS), and immunoblotted with indicated primary antibodies and appropriate horseradish peroxidase-conjugated secondary antibodies. Immunoblots were developed using Western Lighting Chemiluminescence Reagent (PerkinElmer).
To develop inhibitors with improved potency to target the IRE1/XBP-1 pathway, tricyclic chromenone-based IRE1 RNase inhibitors with different amine group (R^1) were synthesized and compared: allyloxycarbonyl (alloc) in B-H09 (1), —H in C-B06 (2), and —CH3 in C-D06 (3) (FIG. 1A). 5TGM1 multiple myeloma cells were chosen to evaluate inhibitory effects of these inhibitors because they have constitutively activated IRE1/XBP-1 pathways.

5TGM1 cells = experiment: Cell proliferation XTT assay, 5TGM1; type: cell-based, mouse; details: 20 μM for a course of 3 days
Procedure: 5TGM1 cells were suspended in phenol red-free RPMI media, seeded in 96-well cell culture plates, and treated with indicated IRE1 inhibitors (20 μM, unless indicated otherwise). At indicated time points, cells were spun down and cell proliferation was assessed by XTT assays (Roche) according to the manufacturer's instructions. Briefly, 50 μl XTT labeling reagent, 1 μl electron-coupling reagent, and 100 μl phenol red-free RPMI media were combined and applied to each well of the 96-well plates. Cells were incubated for 4 h in a CO2 incubator to allow for the yellow tetrazolium salt XTT to be cleaved by mitochondrial dehydrogenases of metabolically active cells to form the orange formazan dye, which can be quantified at 492 nm using a BioTek SYNERGY™ NEO2 Multimode Reader.

[2] = Fluorescence stability (decomposition) in aqueous solution; type: physicochemical; details: PBS with 1% DMSO, 37° C., 48 h, from 100%
Procedure: (FIG. 2B) 5TGM1 cells were treated with DMSO or with 20 μM 2, 4, 3, or 7 dissolved in DMSO for 3 days and subjected to XTT assays. Percentages of growth were determined by comparing treated groups with control groups (DMSO). Each data point derived from four independent groups receiving exactly the same treatment was plotted as mean±SD. Results are representative of three independent experiments. […] The values of I/I0 were plotted as a function of time and shown in the inset. I0 was the initial fluorescence intensity of 4 at 0 h. […] The values of I/I0 were plotted as a function of time and shown in the inset. I0 was the initial fluorescence intensity of 5 at 0 h. […] (FIG. 2G) The decomposition rates of 7 and 8 were plotted as a function of time in RPMI media incubated at 37° C. Aliquots were analyzed by HPLC and the peaks integrated.
FIGS. 5A-5J illustrate the finding that installation of a boronate cage cleavable by H2O2 stabilizes the 1,3-dioxane acetal protective group of D-F07 to allow for temporal inhibition of XBP-1s upon contact with H2O2. (FIG. 5A) A scheme showing that installation of a boronate-caged group stabilizes the 1,3-dioxane acetal protective group to allow for H2O2-mediated release of intact D-F07. (FIG. 5B) The fluorescence of BC-D-F07a (2.5 μM in the DMSO/PBS solution (v/v=1:99), Ex=360 nm) increases upon incubation with 0 to 200 μM hydrogen peroxide at room temperature for 1 h. (FIG. 5C) The fluorescence of BC-D-F07b (2.5 μM in the DMSO/PBS solution (v/v=1:99), Ex=360 nm) increases upon incubation with 0 to 2 mM hydrogen peroxide at 37° C. for 1 h. […] I0 was the initial fluorescence intensity of D-F07, BC-D-F07a or BC-D-F07b at 0 h. (FIG. 5E) The levels of hydrogen peroxide produced by 5TGM1, 72-h LPS-stimulated primary CLL, MEC2, and WaC3 cells were measured by Amplex Red with or without the addition of extracellular catalase (500 U/mL). (FIG. 5F) 5TGM1 cells were treated with BC-D-F07a at increasing concentrations for 24 h, lysed, and analyzed for the expression of indicated proteins by immunoblots. (FIG. 5G) CD5+ CLL cells purified from spleens of Eμ-TCL1 mice were stimulated with […], subsequently treated with BC-D-F07a at 20 μM for 16 h, and then incubated with hydrogen peroxide at indicated concentrations for another 4 h. Cells were lysed and analyzed for the expression of indicated proteins by immunoblots. […] Cells were lysed and analyzed for the expression of indicated proteins by immunoblots. […] Percentages of growth were determined by comparing treated groups with control groups (DMSO). […]
UV-vis and fluorescence spectra were carried out on a BioTek SYNERGY™ NEO2 instrument (96 well plate).

MEC2 cells = details: cited from earlier work

**Q.** For `O=c1oc2c(C3OCCCO3)c(O)ccc2c2c1CNCC2` [Compound 4, 7-(1,3-dioxan-2-yl)-8-hydroxy-1,2,3,4-tetrahydro-5H-chromeno[3,4-c]pyridin-5-one], which “suppression of XBP-1s expression, long term” value ([1]; 10 μM for a course of 3 days) is on record?
**A.** continuously suppressed even after 3-day treatment

**Q.** And the “concentration that effectively blocks XBP-1s expression” value ([1]; 24 h)?
**A.** 5 µM

**Q.** What about the “suppression of XBP-1s expression” value ([1]; 24 h, at 5 μM) of the same compound?
**A.** more potent than 5

**Q.** What about the “growth inhibition / cytotoxicity (XTT)” value (5TGM1 cells) of the same compound?
**A.** more potent than their respective aldehyde counterparts

**Q.** What about the “fluorescence intensity remaining (decomposition)” value [2] of the same compound?
**A.** 5.1%

**Q.** And the “sensitivity of MEC2 cells” value (MEC2 cells)?
**A.** less sensitive
